Experimental findings from PubChem BioAssay (NCI) are described below.

Some test systems named below: SK-MEL-28 melanoma; HCC-2998 colon; RXF 393 renal; BT-549 breast; SF-539 CNS; KM12 colon; NCI-H522 lung; MOLT-4 leukemia; HOP-92 NSCLC; HS 578T breast.
Holding throughout (experiment): NCI-60 cell line screen, 48 h

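The compound was tested at five concentrations on cells cultured in 96-well plates, with a 48-hour exposure period. GI50 marks 50% less growth. TGI: total growth inhibition.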 Bounds are passed on as bounds.

In the case of `COc1cc(/C=C2\CC3C4CC=C5C[C@@H](N6CCCC6)CC[C@]5(C)C4CC[C@]3(C)[C@H]2OC(C)=O)ccc1OCCN1CCCCC1` (stereo not given in full), the GI50 was 2.31 µM with SK-MEL-28 melanoma; 0.397 µM in the test with HCC-2998 colon; 1.63 µM in the test with RXF 393 renal; 2.25 µM in the test with BT-549 breast; 1.66 µM with SF-539 CNS; 0.54 µM with KM12 colon. Also, the GI50 in the test on NCI-H522 lung was 1.67 µM; in the test on MOLT-4 leukemia, 0.036 µM; with HOP-92 NSCLC, 0.257 µM. For the same compound, the TGI in the test on SK-MEL-28 melanoma was 4.8 µM; in the test on HCC-2998 colon, 0.85 µM; with RXF 393 renal, 3.64 µM; in the test on BT-549 breast, 4.13 µM; in the test with SF-539 CNS, 3.16 µM; in the test with KM12 colon, 1.4 µM. Moreover, the TGI in the test on NCI-H522 lung was 3.24 µM; in the test with MOLT-4 leukemia, 0.638 µM; with HOP-92 NSCLC, 1.77 µM.
With `COc1ccccc1CNC(=O)C1c2ccccc2C(=O)N(CC(C)C)C1c1cccs1` (stereo not given), the GI50 with SK-MEL-28 melanoma was 30.7 µM; in the test on HCC-2998 colon it was 47.8 µM; in the test with HS 578T breast, 16 µM; with RXF 393 renal it was 17.3 µM; with BT-549 breast it was 23 µM; in the test on SF-539 CNS it was 16.9 µM. The GI50 in the test with KM12 colon was 24.8 µM; in the test on MOLT-4 leukemia, 14.5 µM; in the test with HOP-92 NSCLC, 8.15 µM. In addition, the TGI in the test on SK-MEL-28 melanoma was more than 100 µM; with HCC-2998 colon, more than 100 µM; with HS 578T breast, 60.1 µM; in the test with RXF 393 renal, 48 µM; in the test on BT-549 breast it was 64.4 µM; with SF-539 CNS, 33.8 µM. Besides, the TGI in the test with KM12 colon was more than 100 µM; in the test with MOLT-4 leukemia, 73.9 µM; with HOP-92 NSCLC it was 44 µM.
For `CC12CCc3ccccc3C1=Nc1ccccc12` (stereo not given), the TGI with SK-MEL-28 melanoma is more than 100 µM; in the test on HS 578T breast it was 46.7 µM; with RXF 393 renal, more than 100 µM; in the test with BT-549 breast it was 95.6 µM; in the test on SF-539 CNS it was 78.5 µM; in the test on KM12 colon, 91.9 µM. For the same compound, the TGI in the test on NCI-H522 lung is more than 100 µM; in the test on MOLT-4 leukemia it was 58.5 µM; in the test with HOP-92 NSCLC, 54 µM.
Turning to `CCCCSCc1nc2nc(Cl)c(Cl)nc2[nH]1`, the TGI in the test on SK-MEL-28 melanoma is 71.9 µM; in the test with HS 578T breast it was more than 100 µM; in the test on RXF 393 renal, 68.8 µM; in the test with BT-549 breast it was 79.4 µM; in the test with SF-539 CNS, more than 100 µM; in the test with KM12 colon, more than 100 µM. The values for the TGI with NCI-H522 lung, with MOLT-4 leukemia and with HOP-92 NSCLC were 42.6 µM, 45.5 µM and more than 100 µM, respectively.
`CCOC(=O)c1c(C)n(CC(C)C)c2c1cc1oc(=O)c(=O)n3cnc2c13`: the GI50 in the test on SK-MEL-28 melanoma is 23.6 µM; in the test on HS 578T breast, 11.8 µM; with RXF 393 renal, 12.9 µM; with BT-549 breast, 15.7 µM; in the test on SF-539 CNS, 15.6 µM; with KM12 colon, 13.6 µM. For the same compound, the GI50 is more than 50 µM in the test with NCI-H522 lung, 15.8 µM in the test with MOLT-4 leukemia and 14.5 µM with HOP-92 NSCLC. Further, the TGI is more than 50 µM in the test on SK-MEL-28 melanoma; 38.5 µM with HS 578T breast; 49.7 µM in the test on RXF 393 renal; 43 µM with BT-549 breast; 42 µM in the test with SF-539 CNS; 38.3 µM in the test with KM12 colon. In addition, the TGI in the test on NCI-H522 lung was more than 50 µM; in the test with MOLT-4 leukemia, more than 50 µM; with HOP-92 NSCLC, 43.4 µM.
With `COc1ccc(OC)c(-c2cc(-c3ccccc3)nn2-c2ccc(S(N)(=O)=O)cc2)c1`, the GI50 with HCC-2998 colon is 23 µM; in the test on HS 578T breast it was 18.9 µM; in the test on BT-549 breast, 17.7 µM; in the test with SF-539 CNS it was 18.7 µM; in the test on KM12 colon, 6.93 µM; with NCI-H522 lung, 8.04 µM. Further, the values for the GI50 in the test on MOLT-4 leukemia and in the test on HOP-92 NSCLC were 6.44 µM and 15.5 µM, respectively. Also, the TGI came to 37.9 µM with HCC-2998 colon; 59.1 µM with HS 578T breast; 38.9 µM with BT-549 breast; 36.6 µM with SF-539 CNS; 21.6 µM in the test with KM12 colon; 30 µM with NCI-H522 lung. The TGI in the test with MOLT-4 leukemia is more than 100 µM; in the test with HOP-92 NSCLC, 50.1 µM.
With `c1ccc2cc(OCC3CO3)c(OCC3CO3)cc2c1` (stereo not given), the TGI in the test on SK-MEL-28 melanoma came out at 26.1 µM; with HS 578T breast, 20.3 µM; in the test on RXF 393 renal, 1.47 µM; in the test on BT-549 breast, 5.57 µM; with SF-539 CNS it was 9.13 µM; with KM12 colon, 26.7 µM. The TGI with NCI-H522 lung turned out to be 5.79 µM; in the test with MOLT-4 leukemia it was 16.5 µM; in the test with HOP-92 NSCLC it was 23.5 µM.
In the case of `CCN(CC)CCCCCOc1cc(O)c2c(=O)cc(-c3ccccc3)oc2c1`, the GI50 in the test with SK-MEL-28 melanoma is 1.62 µM; with HCC-2998 colon, 0.386 µM; in the test with HS 578T breast it was 15.6 µM; in the test on RXF 393 renal it was 1.6 µM; in the test with BT-549 breast, 12.5 µM; in the test with SF-539 CNS, 2.43 µM. Besides, the GI50 in the test on KM12 colon was 2.89 µM; in the test on NCI-H522 lung it was 2.23 µM; in the test with MOLT-4 leukemia it was 3.76 µM. Besides, the TGI in the test with SK-MEL-28 melanoma came out at 3.07 µM; in the test with HCC-2998 colon, 2.35 µM; in the test on HS 578T breast, 42.7 µM; in the test with RXF 393 renal, 3.37 µM; in the test on BT-549 breast, 26.5 µM; in the test on SF-539 CNS, 6.01 µM. The results for the TGI in the test on KM12 colon, in the test on NCI-H522 lung and in the test on MOLT-4 leukemia were 9.37 µM, 5.13 µM and 11.2 µM, respectively.
Consider `CC(C)=CCC/C(C)=C/CC/C(=C/COP(=O)(OCc1ccc([N+](=O)[O-])o1)N(C)CCCCCl)CC=C(C)C` (stereo not given), for which the GI50 was 19.6 µM in the test on SK-MEL-28 melanoma; 0.0597 µM with HCC-2998 colon; 6.03 µM with RXF 393 renal; 2.31 µM with BT-549 breast; 3.52 µM in the test with SF-539 CNS; 2.98 µM in the test with KM12 colon. For the same compound, the GI50 is 2.04 µM with NCI-H522 lung, 4.14 µM in the test with MOLT-4 leukemia and 16.5 µM with HOP-92 NSCLC. The TGI in the test with SK-MEL-28 melanoma was determined as 43 µM; in the test on HCC-2998 colon, 2.45 µM; in the test on RXF 393 renal, 22.8 µM; in the test with BT-549 breast, 7 µM; in the test with SF-539 CNS, 11.9 µM; with KM12 colon, 17.1 µM. Further, the TGI in the test with NCI-H522 lung was 7.47 µM; in the test on MOLT-4 leukemia, more than 100 µM; with HOP-92 NSCLC it was 36 µM.
As for `O=C(N=Nc1c(O)[nH]c2c(Cl)cc(Cl)cc12)c1ccncc1`, the TGI with SK-MEL-28 melanoma is 50.5 µM; in the test with HCC-2998 colon it was more than 100 µM; with HS 578T breast it was more than 100 µM; in the test with RXF 393 renal, 61.4 µM; in the test with BT-549 breast it was more than 100 µM; with SF-539 CNS, 51.1 µM. Also, the TGI with KM12 colon, in the test with MOLT-4 leukemia and with HOP-92 NSCLC was more than 100 µM each time.
For the compound `O=[N+]([O-])c1cc(Cl)cc2c1nc(NCCO)c1ccccc12`, the TGI with SK-MEL-28 melanoma is more than 100 µM; in the test with HS 578T breast, more than 100 µM; in the test on RXF 393 renal it was 19.3 µM; with BT-549 breast, more than 82.1 µM; with SF-539 CNS, more than 100 µM; in the test with KM12 colon, 93.7 µM. Also, the values for the TGI in the test on NCI-H522 lung, in the test with MOLT-4 leukemia and in the test on HOP-92 NSCLC were 62.9 µM, 34 µM and more than 88 µM, respectively.
In the case of `CCCCN(CCCC)CC(C)(C)C(O)c1ccc(OC)c2ccccc12` (stereo not given), the GI50 was 11.3 µM with SK-MEL-28 melanoma; 3.69 µM in the test with HCC-2998 colon; 4.55 µM with HS 578T breast; 1.5 µM in the test on RXF 393 renal; 12.1 µM with BT-549 breast; 3.31 µM in the test with KM12 colon. Further, the GI50 was 4.18 µM with NCI-H522 lung, 2.68 µM with MOLT-4 leukemia and 3.11 µM in the test on HOP-92 NSCLC. The TGI with SK-MEL-28 melanoma stood at 24.8 µM; in the test on HCC-2998 colon, 12 µM; in the test on HS 578T breast, 27 µM; in the test with RXF 393 renal it was 4.51 µM; in the test on BT-549 breast, 30.3 µM; with KM12 colon, 16.5 µM. Further, the values for the TGI in the test on NCI-H522 lung, in the test on MOLT-4 leukemia and with HOP-92 NSCLC were 18.5 µM, 11.7 µM and 8.81 µM, respectively.
`CC1CCCN(CC(O)CN2CCCc3ccccc32)C1` (stereo not given): the TGI with SK-MEL-28 melanoma, with HS 578T breast, in the test on RXF 393 renal, with BT-549 breast, in the test with KM12 colon and with NCI-H522 lung was more than 100 µM each time. Besides, the TGI in the test with MOLT-4 leukemia was more than 100 µM.
On to `CCOC(=O)c1cc2cc(NC(=O)c3cc4cc([N+](=O)[O-])ccc4n3C)ccc2n1C`, for which the GI50 is 63.6 µM in the test with SK-MEL-28 melanoma; 97.5 µM with HS 578T breast; 41 µM in the test on RXF 393 renal; 11.6 µM in the test on BT-549 breast; 49 µM with KM12 colon; more than 100 µM in the test with NCI-H522 lung. Moreover, the GI50 in the test with MOLT-4 leukemia was 30.9 µM; in the test with HOP-92 NSCLC, 34.9 µM. Moreover, the TGI with SK-MEL-28 melanoma was more than 100 µM; with HS 578T breast, more than 100 µM; in the test on RXF 393 renal it was more than 100 µM; with BT-549 breast, 35.3 µM; in the test with KM12 colon, more than 100 µM; in the test on NCI-H522 lung, more than 100 µM. For the same compound, the values for the TGI in the test with MOLT-4 leukemia and with HOP-92 NSCLC were more than 100 µM and 85 µM, respectively.
On to `C=CC[Se]C(=O)Cc1c(C)n(C(=O)c2ccc(Cl)cc2)c2ccc(OC)cc12`, for which the GI50 in the test on SK-MEL-28 melanoma was 1.69 µM; in the test with HCC-2998 colon, 1.64 µM; with HS 578T breast, 2.25 µM; in the test with BT-549 breast, 1.59 µM; with SF-539 CNS, 1.66 µM; in the test with KM12 colon it was 1.53 µM. The GI50 in the test on NCI-H522 lung is 1.97 µM; in the test with MOLT-4 leukemia, 2.87 µM; in the test with HOP-92 NSCLC, 1.85 µM. Also, the TGI in the test on SK-MEL-28 melanoma was found to be 3.12 µM; in the test with HCC-2998 colon, 3.2 µM; with HS 578T breast, 7.33 µM; in the test with BT-549 breast, 3.01 µM; in the test on SF-539 CNS it was 3.02 µM; with KM12 colon it was 3.42 µM. The TGI is 4.63 µM with NCI-H522 lung, 8.72 µM with MOLT-4 leukemia and 4.09 µM in the test on HOP-92 NSCLC.
